Results taken from ChEMBL document CHEMBL1201862, “PubChem BioAssay data set” (2004).
Calls of active or inactive are those of the source.

Key:
Escherichia coli = experiment: microbe, parasite or virus in culture
[1] = growth suppression of beta-catenin-knockout colon cells, dose response, cell-based, HCT116, human colon tumor (AID 1045); format: functional;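 also: HCT116 colon tumor cells with beta catenin knocked out; cells exposed to compound for 60 hours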
BJ [2] = experiment: cytotoxicity toward BJ-TERT fibroblasts, dose response, cell-based, RAS-independent, luminescence (AID 1933); format: functional; conditions: Homo sapiens
[3] = growth suppression of PTEN-null colon cells, dose response, cell-based, HCT116 PTEN knockout (AID 1047); format: functional;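 also: HCT116 colon tumor cells with PTEN knocked out; cells exposed to compound for 60 hours before readout; potency for loss of cell viability measured by luminescence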
BJ [4] = experiment: cytotoxicity toward BJ-TERT-LT-ST fibroblasts, dose response, cell-based, RAS-independent, luminescence (AID 1935); format: functional; conditions: Homo sapiens;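 also: BJ fibroblasts immortalized with TERT plus LT and ST oncogenes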
[5] = cytotoxicity in HEK-293T cells, dose response, cytotoxicity control for TCR NF-kB inhibitor project, luminescence, T-cell screen hits (AID 489026); format: functional, cell-based;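 also: cells exposed to compound about 14 hours before the viability readout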
[6] = cytotoxicity toward DRD oncogenic fibroblasts, dose response, cell-based, non-viral oncogenic, luminescence (AID 1934); format: functional; conditions: Homo sapiens
BJ [7] = experiment: cells; format: functional, cell-based; conditions: Homo sapiens, read-out: EC50
Cytochrome P450 3A4 = Cytochrome P450 3A4 (Homo sapiens, UniProt P08684);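 also: CYP3A4 tested as one member of a cytochrome P450 panel screen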
Chain of Cytochrome P450 3A4 (P08684 whole entry): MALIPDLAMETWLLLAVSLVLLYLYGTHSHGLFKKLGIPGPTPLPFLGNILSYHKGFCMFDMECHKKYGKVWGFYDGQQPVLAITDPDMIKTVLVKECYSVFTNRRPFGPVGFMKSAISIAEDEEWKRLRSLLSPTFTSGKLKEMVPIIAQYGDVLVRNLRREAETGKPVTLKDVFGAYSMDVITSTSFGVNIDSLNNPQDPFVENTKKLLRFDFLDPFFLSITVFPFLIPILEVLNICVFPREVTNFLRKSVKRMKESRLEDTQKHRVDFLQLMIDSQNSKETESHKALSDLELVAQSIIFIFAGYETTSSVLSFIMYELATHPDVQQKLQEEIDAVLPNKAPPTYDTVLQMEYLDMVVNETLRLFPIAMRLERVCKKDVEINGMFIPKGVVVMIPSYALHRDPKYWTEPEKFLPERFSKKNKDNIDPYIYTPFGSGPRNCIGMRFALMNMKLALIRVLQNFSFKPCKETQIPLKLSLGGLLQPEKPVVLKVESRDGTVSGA

[8] = molecular target: T1, Alkaline phosphatase, tissue-nonspecific isozyme (Homo sapiens, UniProt P05186); experiment: human TNAP enzyme inhibitors, SAR follow-up, biochemical, luminescent, dose response (AID 1056)
T1 sequence (P05186 whole entry): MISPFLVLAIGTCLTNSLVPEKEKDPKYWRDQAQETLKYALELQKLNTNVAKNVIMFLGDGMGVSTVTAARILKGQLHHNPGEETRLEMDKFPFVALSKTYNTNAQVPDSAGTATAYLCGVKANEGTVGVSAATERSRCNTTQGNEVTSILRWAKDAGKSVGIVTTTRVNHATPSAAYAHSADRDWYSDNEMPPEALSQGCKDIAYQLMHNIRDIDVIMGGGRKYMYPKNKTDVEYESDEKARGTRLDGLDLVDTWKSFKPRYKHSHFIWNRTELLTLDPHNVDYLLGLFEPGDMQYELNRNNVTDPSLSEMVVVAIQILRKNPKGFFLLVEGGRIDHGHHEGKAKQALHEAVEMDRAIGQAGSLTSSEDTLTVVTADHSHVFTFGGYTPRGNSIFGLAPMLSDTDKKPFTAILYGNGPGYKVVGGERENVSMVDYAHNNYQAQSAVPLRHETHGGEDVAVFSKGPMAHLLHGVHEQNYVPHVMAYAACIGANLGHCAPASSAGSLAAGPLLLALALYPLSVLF

[9] = molecular target: Glyceraldehyde-3-phosphate dehydrogenase (Homo sapiens, UniProt P04406)
Chain of Glyceraldehyde-3-phosphate dehydrogenase (P04406 whole entry): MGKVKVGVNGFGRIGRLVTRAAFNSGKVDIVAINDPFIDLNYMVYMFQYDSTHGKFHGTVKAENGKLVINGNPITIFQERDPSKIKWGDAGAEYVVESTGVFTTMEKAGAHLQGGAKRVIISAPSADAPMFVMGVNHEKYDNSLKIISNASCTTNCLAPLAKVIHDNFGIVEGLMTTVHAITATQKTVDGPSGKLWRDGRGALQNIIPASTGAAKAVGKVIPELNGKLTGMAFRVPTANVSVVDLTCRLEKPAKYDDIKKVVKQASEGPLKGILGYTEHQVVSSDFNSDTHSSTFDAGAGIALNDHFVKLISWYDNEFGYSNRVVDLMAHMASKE

[10] = molecular target: T2, Sentrin-specific protease 7 (Homo sapiens, UniProt Q9BQF6); format: functional;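 also: Luminescence-based dose-response confirmation of ultra-high-throughput screening hits, measuring inhibition of SENP7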
T2 sequence (Q9BQF6 whole entry): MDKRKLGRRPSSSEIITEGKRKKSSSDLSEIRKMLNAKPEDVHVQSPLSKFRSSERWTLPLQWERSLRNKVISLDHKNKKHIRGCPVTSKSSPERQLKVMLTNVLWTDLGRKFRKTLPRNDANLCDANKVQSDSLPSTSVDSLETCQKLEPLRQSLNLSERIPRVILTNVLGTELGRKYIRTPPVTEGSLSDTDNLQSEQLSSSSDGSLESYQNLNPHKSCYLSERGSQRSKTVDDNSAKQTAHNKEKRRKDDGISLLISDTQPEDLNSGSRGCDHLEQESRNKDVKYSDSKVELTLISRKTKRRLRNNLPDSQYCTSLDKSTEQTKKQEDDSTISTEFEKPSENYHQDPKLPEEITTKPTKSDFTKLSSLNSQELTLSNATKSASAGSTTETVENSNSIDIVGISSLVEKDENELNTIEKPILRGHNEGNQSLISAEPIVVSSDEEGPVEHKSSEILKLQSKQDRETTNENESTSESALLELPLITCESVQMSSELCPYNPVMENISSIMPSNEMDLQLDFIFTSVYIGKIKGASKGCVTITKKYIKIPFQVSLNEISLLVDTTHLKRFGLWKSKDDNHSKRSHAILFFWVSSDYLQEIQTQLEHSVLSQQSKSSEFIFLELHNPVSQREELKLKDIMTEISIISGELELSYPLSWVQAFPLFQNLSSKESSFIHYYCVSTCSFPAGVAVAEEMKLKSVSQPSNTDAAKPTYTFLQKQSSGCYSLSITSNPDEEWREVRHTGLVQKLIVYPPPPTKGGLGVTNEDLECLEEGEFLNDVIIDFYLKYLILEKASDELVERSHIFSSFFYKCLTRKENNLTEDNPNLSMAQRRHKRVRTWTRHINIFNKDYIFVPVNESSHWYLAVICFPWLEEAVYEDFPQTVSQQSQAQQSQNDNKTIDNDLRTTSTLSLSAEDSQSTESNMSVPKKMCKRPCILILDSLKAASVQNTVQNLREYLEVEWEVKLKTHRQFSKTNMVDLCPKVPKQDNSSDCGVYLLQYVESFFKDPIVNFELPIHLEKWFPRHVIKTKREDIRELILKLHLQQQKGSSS

[11] = molecular target: T3, Sentrin-specific protease 8 (Homo sapiens, UniProt Q96LD8); format: functional;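 also: luminescence read-out of SENP8 inhibition, dose-response confirmation following an ultra-high-throughput screen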
T3 sequence (Q96LD8 whole entry): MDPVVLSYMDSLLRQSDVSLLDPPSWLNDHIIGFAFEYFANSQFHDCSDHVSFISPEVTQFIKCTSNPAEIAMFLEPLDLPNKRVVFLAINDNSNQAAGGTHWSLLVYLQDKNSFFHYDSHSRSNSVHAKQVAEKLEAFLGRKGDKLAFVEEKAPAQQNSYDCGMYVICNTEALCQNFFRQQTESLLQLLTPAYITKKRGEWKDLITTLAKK

[12] = molecular target: T4, Sentrin-specific protease 6 (Homo sapiens, UniProt Q9GZR1); experiment: SAR Analysis of small molecule inhibitors of Sentrin-specific protease 6 (SENP6) using a Luminescent assay. [Related pubchem assays (depositor defined):AID2582, AID2599]; format: functional
T4 sequence (Q9GZR1 whole entry): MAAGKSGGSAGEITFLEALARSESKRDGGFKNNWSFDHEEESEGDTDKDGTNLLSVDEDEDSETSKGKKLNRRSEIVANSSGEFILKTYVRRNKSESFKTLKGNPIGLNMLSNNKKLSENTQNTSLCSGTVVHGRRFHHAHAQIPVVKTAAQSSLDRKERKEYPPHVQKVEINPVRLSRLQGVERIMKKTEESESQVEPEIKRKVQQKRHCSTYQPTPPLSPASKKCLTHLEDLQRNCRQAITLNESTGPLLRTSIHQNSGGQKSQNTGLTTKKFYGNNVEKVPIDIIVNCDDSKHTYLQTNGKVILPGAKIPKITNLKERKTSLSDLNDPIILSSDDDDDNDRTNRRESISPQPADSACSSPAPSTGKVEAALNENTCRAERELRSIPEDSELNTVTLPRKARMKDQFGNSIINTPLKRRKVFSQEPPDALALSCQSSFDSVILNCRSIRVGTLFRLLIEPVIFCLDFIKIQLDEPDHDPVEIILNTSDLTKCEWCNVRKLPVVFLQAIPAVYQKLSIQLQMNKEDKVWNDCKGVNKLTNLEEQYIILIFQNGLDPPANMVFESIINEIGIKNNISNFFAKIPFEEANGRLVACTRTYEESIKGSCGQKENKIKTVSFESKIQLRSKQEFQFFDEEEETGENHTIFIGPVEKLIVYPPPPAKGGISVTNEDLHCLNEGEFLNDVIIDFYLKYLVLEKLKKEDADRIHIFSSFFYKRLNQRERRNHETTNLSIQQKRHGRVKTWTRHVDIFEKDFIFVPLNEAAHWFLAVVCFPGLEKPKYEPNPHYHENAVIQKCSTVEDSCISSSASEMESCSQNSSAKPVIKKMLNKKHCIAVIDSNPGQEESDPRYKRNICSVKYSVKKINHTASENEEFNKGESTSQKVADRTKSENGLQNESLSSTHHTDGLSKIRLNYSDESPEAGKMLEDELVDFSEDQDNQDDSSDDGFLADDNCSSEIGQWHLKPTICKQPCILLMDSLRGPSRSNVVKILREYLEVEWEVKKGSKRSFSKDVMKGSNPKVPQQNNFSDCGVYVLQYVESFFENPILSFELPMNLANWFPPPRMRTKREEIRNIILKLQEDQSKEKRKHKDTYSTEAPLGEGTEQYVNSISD

Caspase-3 [13] = molecular target: T5, Caspase-3 (Homo sapiens, UniProt P42574); format: functional
T5 sequence (P42574 whole entry): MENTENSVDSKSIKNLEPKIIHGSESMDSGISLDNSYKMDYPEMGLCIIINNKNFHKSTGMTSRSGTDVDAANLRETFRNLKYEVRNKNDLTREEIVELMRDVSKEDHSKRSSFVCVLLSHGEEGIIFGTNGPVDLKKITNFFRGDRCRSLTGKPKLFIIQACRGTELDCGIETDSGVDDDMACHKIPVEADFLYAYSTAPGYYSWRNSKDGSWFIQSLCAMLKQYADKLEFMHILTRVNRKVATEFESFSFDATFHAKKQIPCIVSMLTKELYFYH

[14] = molecular target: T2, Sentrin-specific protease 7; experiment: SENP7 protease inhibitors, SAR follow-up, biochemical, luminescence (AID 504497); format: functional
[15] = molecular target: T3, Sentrin-specific protease 8; experiment: SENP8 protease inhibitors, SAR follow-up, biochemical, luminescence (AID 504501); format: functional
[16] = molecular target: T4, Sentrin-specific protease 6; format: functional
Caspase-3 [17] = molecular target: T5, Caspase-3; experiment: SAR Analysis of small molecule inhibitors of Sentrin-specific proteases (SENPs) using a Caspase-3 Selectivity assay. [Related pubchem assays (depositor defined):AID2540, AID2599, AID434973, AID489001]; format: functional
[18] = molecular target: T6, Heat shock factor protein 1 (Mus musculus, UniProt P38532); experiment: inhibition of MG132-induced HSE-luciferase signal, confirmation, cell-based, NIH3T3, luminescence, dose retest (AID 2382); format: functional;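 also: NIH3T3 fibroblasts with HSF1-driven luciferase reporter stressed by proteasome inhibitor MG132; luminescence from HSF1-driven luciferase expression after 8 hours of MG132 stress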
T6 sequence (P38532 whole entry): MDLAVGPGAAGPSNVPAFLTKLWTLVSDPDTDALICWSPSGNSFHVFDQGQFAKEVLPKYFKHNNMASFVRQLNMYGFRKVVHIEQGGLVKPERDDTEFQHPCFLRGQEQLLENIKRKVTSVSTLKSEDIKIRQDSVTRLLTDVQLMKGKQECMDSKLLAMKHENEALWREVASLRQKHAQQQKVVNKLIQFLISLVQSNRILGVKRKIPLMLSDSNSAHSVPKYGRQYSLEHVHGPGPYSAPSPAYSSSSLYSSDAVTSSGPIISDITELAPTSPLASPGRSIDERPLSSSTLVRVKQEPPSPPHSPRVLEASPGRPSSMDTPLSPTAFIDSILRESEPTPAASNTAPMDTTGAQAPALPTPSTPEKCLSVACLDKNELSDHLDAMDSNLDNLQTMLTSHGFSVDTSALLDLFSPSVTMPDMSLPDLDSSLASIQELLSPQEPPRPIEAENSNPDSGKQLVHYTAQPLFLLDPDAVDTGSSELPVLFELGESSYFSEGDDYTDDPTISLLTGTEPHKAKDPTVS

Paired box protein Pax-8 = Paired box protein Pax-8 (Homo sapiens, UniProt Q06710); experiment: inhibitors of PAX8-driven TPO luciferase reporter, dose response, RMG-I cells, cherry-pick (AID 687027); format: functional, cell-based;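 also: luciferase reporter driven by Pax8 target thyroperoxidase promoter measured by SteadyGlo luminescence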
Chain of Paired box protein Pax-8 (Q06710 whole entry): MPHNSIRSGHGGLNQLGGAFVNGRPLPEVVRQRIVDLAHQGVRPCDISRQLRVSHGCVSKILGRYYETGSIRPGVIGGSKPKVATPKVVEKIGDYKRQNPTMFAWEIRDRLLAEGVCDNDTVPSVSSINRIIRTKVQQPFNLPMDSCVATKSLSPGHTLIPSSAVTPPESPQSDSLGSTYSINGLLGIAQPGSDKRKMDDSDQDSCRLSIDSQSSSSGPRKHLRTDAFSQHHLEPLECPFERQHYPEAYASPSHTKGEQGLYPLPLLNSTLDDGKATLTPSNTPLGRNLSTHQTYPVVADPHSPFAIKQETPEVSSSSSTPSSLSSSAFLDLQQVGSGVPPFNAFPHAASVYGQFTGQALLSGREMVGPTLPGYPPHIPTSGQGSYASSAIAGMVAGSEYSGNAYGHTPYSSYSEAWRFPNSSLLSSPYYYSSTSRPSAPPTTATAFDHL

[19] = HEp-2 cell cytotoxicity, dose response, cytotoxicity control for RSV inhibitor project, HTS (AID 2410); format: functional; conditions: human respiratory syncytial virus
[20] = molecular target: T7, Low molecular weight phosphotyrosine protein phosphatase (Homo sapiens, UniProt P24666); format: functional; conditions: read-out: IC50_Mean;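 also: Dose-response confirmation assay measuring inhibition of LMPTP enzyme activity by fluorescence intensity read-out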
T7 sequence (P24666 whole entry): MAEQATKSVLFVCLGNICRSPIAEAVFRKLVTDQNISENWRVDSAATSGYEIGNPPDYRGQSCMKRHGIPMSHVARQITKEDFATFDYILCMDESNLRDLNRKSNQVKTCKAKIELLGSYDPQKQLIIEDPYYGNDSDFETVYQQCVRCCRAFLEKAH

Cc1ccc(-c2cc(C(=O)OCC(=O)N(C)c3c(N)n(Cc4ccccc4)c(=O)[nH]c3=O)c3ccccc3n2)o1
AC50 (Escherichia coli): 25.8 µM (active)

COc1cc(C(=O)N2CCN(c3cccc(C)c3C)CC2)cc(OC)c1OC
EC50 [1]: 0.721 µM (active) | EC50 (BJ [2]): 7.81 µM (inconclusive) | EC50 [3]: 0.876 µM (active) | EC50 (BJ [4]): 4.12 µM (active) | IC50 [5]: > 80 µM (inactive) | EC50 [6]: 11.8 µM (inconclusive) | EC50 (BJ [7]): 20.4 µM (active)

O=C(O)C1C(=O)NCC1c1ccccc1 (stereo not drawn)
AC50 (Escherichia coli): 24.3 µM (active)

CC(C)NC(=O)N1CCC2(CC1)CCN(C(=O)Oc1ccccc1)CC2
AC50 (Cytochrome P450 3A4): inconclusive

CC1(C)CC(=O)c2cnc(N)nc2C1
AC50 (Cytochrome P450 3A4): inconclusive

Cc1c(C(=O)O)nnn1-c1ccc(Cl)cc1
IC50 [8]: > 100 µM (inactive) | IC50 [9]: > 100 µM (not active)

CSc1nc2ccc(NC(=O)c3cc4ccccc4o3)cc2s1
IC50 [10]: > 100 µM (inactive) | IC50 [11]: 94.3 µM (active) | IC50 [12]: 0.905 µM (active) | IC50 (Caspase-3 [13]): > 100 µM (inactive) | IC50 [14]: 0.896 µM (active) | IC50 [15]: 0.869 µM (active) | IC50 [16]: 13.5 µM (active) | IC50 (Caspase-3 [17]): 1.41 µM (active)

C/N=c1\scc(-c2cccs2)n1/N=C/c1ccccc1O
EC50 [18]: < 0.16 µM (active) | AC50 (Paired box protein Pax-8): < 0.26 µM (active) | IC50 [5]: > 80 µM (inactive)

COc1cccc(S(=O)(=O)Nc2ccncn2)c1
IC50 [8]: > 100 µM (inactive) | IC50 [9]: > 100 µM (not active)

Cc1nc2scc(-c3ccccc3)c2c(=O)n1/N=C/c1ccco1
AC50 (Escherichia coli): 23.4 µM (active)

COc1ccc(CNC(C)(C)C)cc1Cl.Cl
AC50 (Cytochrome P450 3A4): inconclusive

CCn1cc(C(=O)O)c(=O)c2cc(F)c(N3CCN(C(=O)Nc4ccccc4)CC3)cc21
CC50 [19]: > 50 µM (active) | IC50 (cells): 26.9 µM (active) | IC50 [20]: 73.1 µM (inactive)

CS(=O)(=O)N1CCC2(CC1)CN(C(c1ccccc1)c1ccccc1)C2
AC50 (Cytochrome P450 3A4): inconclusive

CCn1ncc(C2=NOC(C(=O)NCc3ccccc3)C2)c1C (stereo not drawn)
IC50 [5]: > 80 µM (inactive)
